Test results published in patent US10064831B2, “Active substances and cosmetic or dermatological preparations containing said active substances for the care of the skin of patients of diabetes mellitus” (BEIERSDORF AG, priority 2015, dated 2018).

Test system: glyoxalases
Test: induction of glyoxalase activity in skin cells
Format: cell-based
Conditions: no method or numbers given

## C=CC(C)(C)c1cc(/C=C/C(=O)c2ccc(O)cc2)c(OC)cc1O [licochalcone A]
  activity of glyoxalases induced in skin cells: enhanced activity of glyoxalases
